Values of other authors as cited in patent publication US20020177614A1, “Methods for treating nuerodegenerative diseases including alzheimer's” (priority 2001, published 2002).

System: Diphtheria and Pseudomonas toxins
Settings: several bacterial ADP-ribosylating toxins, including Diphtheria and Pseudomonas toxins

NC(=O)c1cccnc1 [nicotinamide]
effect on bacterial ADP-ribosylating toxins: prevent or reverse the effects
